Data set [1] relates to Rattus norvegicus. The data set can be described thus: Antiinflammatory activity in albino rat assessed as inhibition of carrageenan-induced paw edema at 10 mg/kg, ip after 3 hrs. The data set is classed as functional. The settings on record: route intraperitoneal. (Carrageenan injected into the paw causes an acute inflammation.)
The subject of data set [2] is Rattus norvegicus. The data set can be described thus: Antiinflammatory activity in albino rat assessed as inhibition of carrageenan-induced paw edema at 10 mg/kg, ip after 0.5 hrs. The data set is classed as functional. As to conditions: route intraperitoneal.
Data set [3] relates to Mus musculus. The data set can be described thus: Analgesic activity in albino mouse assessed as effect on […] at 10 mg/kg, ip after 5 hrs by hot plate test. The data set is classed as functional. As to conditions: route intraperitoneal.
For data set [4], the system named is Mus musculus. The data set can be described thus: Analgesic activity in albino mouse assessed as effect on […] at 10 mg/kg, ip after 2 hrs by hot plate test. As to conditions: route intraperitoneal. The data set is classed as functional. Background: In hot-plate and tail-flick tests a longer latency is read as antinociception.
The test system of data set [5] is Rattus norvegicus. The data set can be described thus: Antiinflammatory activity in albino rat assessed as inhibition of carrageenan-induced paw edema at 10 mg/kg, ip after 5 hrs. The data set is classed as functional. The settings on record: route intraperitoneal.
The test system of data set [6] is Mus musculus. The data set can be described thus: Analgesic activity in albino mouse assessed as effect on […] at 10 mg/kg, ip after 0.5 hrs by hot plate test. The data set is classed as functional. The settings on record: route intraperitoneal.
The test system of data set [7] is Mus musculus. The data set can be described thus: Analgesic activity in albino mouse assessed as effect on […] at 10 mg/kg, ip after 1 hrs by hot plate test. It is filed as functional. The settings on record: route intraperitoneal.
Data set [8] concerns Rattus norvegicus. The data set can be described thus: Antiinflammatory activity in albino rat assessed as inhibition of carrageenan-induced paw edema at 10 mg/kg, ip after 1 hrs. The data set is classed as functional. The settings on record: route intraperitoneal.
The test system of data set [9] is Mus musculus. Kind of data set: Analgesic activity in albino mouse assessed as effect on […] at 10 mg/kg, ip after 3 hrs by hot plate test. The data set is classed as functional. The settings on record: route intraperitoneal.
Data set [10] deals with Mus musculus. The data set can be described thus: Analgesic activity in albino mouse assessed as effect on […] at 10 mg/kg, ip after 4 hrs by hot plate test. The data set is classed as functional. The settings on record: route intraperitoneal.
Data set [11] concerns Rattus norvegicus. Kind of data set: Antiinflammatory activity in albino rat assessed as inhibition of carrageenan-induced paw edema at 10 mg/kg, ip after 4 hrs. It is filed as functional. The settings on record: route intraperitoneal.
In data set [12] the test system is Rattus norvegicus. Kind of data set: Antiinflammatory activity in albino rat assessed as inhibition of carrageenan-induced paw edema at 10 mg/kg, ip after 2 hrs. It is filed as functional. As to conditions: route intraperitoneal.
Data set [13] deals with Mus musculus. The data set can be described thus: Acute toxicity in ip dosed albino mouse upto 250 mg/kg after 72 hrs. It is filed as organism-based. Also on record: dose 250 mg/kg, route intraperitoneal. As to conditions: in vivo.

Each structure is given as a SMILES string.

Broadly, the inhibition in vivo is the share of the control response that was lost under treatment.

As for `N#CC1=C(N)C2=C(c3ccccc3)C(c3ccccc3)=NNC2[Se]1` (centres undefined), the inhibition in vivo at 10 mg/kg in [1] is 29.4%; in [2] it was 8.8%; in data set [5] it was 44.4%; in [8], 9.9%; in data set [11], 36.1%; in [12], 29.4%. Besides, the Activity in [3] is reported as 65.3%; in data set [4], 75.5%; in data set [6] it was 67.9%; in [7] it was 77.9%; in [9], 79.8%; in data set [10], 75.5%.
Consider `NC1=C(C(=O)c2ccccc2)[Se]C2NN=C(c3ccccc3)C(c3ccccc3)=C12` (centres undefined), for which the inhibition in vivo at 10 mg/kg in [1] was found to be 29.4%; in [2] it was 9%; in data set [5] it was 38.8%; in data set [8], 9%; in data set [11] it was 35.5%; in [12] it was 26.4%. The Activity in data set [3] is on record as 24.2%; in data set [4], 30.6%; in data set [6], 25.2%; in data set [7] it was 27.1%; in [9], 36.5%; in data set [10], 31.9%.
Regarding `O=C1NC2(CCCCC2)NC2=C1[Se]C1NN=C(c3ccccc3)C(c3ccccc3)=C21` (centres undefined), the inhibition in vivo at 10 mg/kg in data set [1] was 23.5%; in data set [2] it was 8.7%; in data set [5], 38.8%; in [8] it was 9.9%; in [11], 30.5%; in data set [12], 23.5%.
For `N#Cc1c(-c2ccccc2)c(-c2ccccc2)n[nH]c1=[Se]`, the inhibition in vivo at 10 mg/kg stood at 23.5% in data set [1]; 8.8% in data set [2]; 30.5% in data set [5]; 17.2% in [8]; 30.5% in [11]; 20.5% in data set [12].
For `NC(=O)C1=C(N)C2=C(c3ccccc3)C(c3ccccc3)=NNC2[Se]1` (centres undefined), the inhibition in vivo at 10 mg/kg in data set [1] was 44.4%; in [2], 8.7%; in data set [5] it was 50%; in [8] it was 14.7%; in [11], 47.2%; in data set [12], 26.4%. In addition, the Activity entry in data set [13] is “Non-toxic”; in data set [3], 83.4%; in data set [4], 99.4%; in data set [6], 90.3%; in data set [7] it was 97.8%; in [9] it was 98.4%. Also, the Activity in data set [10] stood at 90.5%.
Take `CCOC(=O)C1=C(N)C2=C(c3ccccc3)C(c3ccccc3)=NNC2[Se]1` (centres undefined): the inhibition in vivo at 10 mg/kg in [1] amounted to 35.2%; in data set [2], 8.8%; in data set [5], 44.4%; in [8], 17.2%; in [11] it was 41.6%; in data set [12], 23.5%. In addition, the Activity was 33.4% in data set [3]; 39.8% in [4]; 21.6% in data set [6]; 42.8% in data set [7]; 41.3% in [9]; 39.6% in [10].
For `CC(=O)C1=C(N)C2=C(c3ccccc3)C(c3ccccc3)=NNC2[Se]1` (centres undefined), the inhibition in vivo at 10 mg/kg in data set [1] stood at 20.5%; in [2], 8.8%; in data set [5] it was 33.5%; in [8], 17.2%; in data set [11], 28.5%; in [12], 20.5%.
Regarding `CC(=O)Oc1ccccc1C(=O)O` [ASPIRIN], the Activity in [3] is recorded as 30.01%; in data set [4] it was 50.5%; in data set [6], 36.2%; in [7] it was 58.9%; in [9], 45.6%; in data set [10] it was 39.2%.
As to `COc1ccc2c(c1)c(CC(=O)O)c(C)n2C(=O)c1ccc(Cl)cc1` [INDOMETHACIN], the inhibition in vivo at 10 mg/kg in data set [1] stood at 44.1%; in [2] it was 11.7%; in [5], 57.5%; in data set [8], 20.5%; in [11] it was 52.7%; in [12], 32.3%.

For the origin of these results see ChEMBL document CHEMBL1156716, “Selenium containing heterocycles: synthesis, anti-inflammatory, analgesic and anti-microbial activities of some new 4-cyanopyridazine-3(2H)selenone derivatives” (Eur J Med Chem, 2008).
